Experimental data from patent publication US7727736B2, “Soluble phospholipids for use in clotting factor assays” (The University of North Carolina at Chapel Hill, priority 2003, dated 2010).

Experiments:
[1] = target: T1, factor Va (Bos taurus, UniProt Q28107); conditions: Zhai et al. (2002); read-out: kd of binding to factor Va; cited from earlier work
T1 sequence (Q28107 29-741 limits assumed): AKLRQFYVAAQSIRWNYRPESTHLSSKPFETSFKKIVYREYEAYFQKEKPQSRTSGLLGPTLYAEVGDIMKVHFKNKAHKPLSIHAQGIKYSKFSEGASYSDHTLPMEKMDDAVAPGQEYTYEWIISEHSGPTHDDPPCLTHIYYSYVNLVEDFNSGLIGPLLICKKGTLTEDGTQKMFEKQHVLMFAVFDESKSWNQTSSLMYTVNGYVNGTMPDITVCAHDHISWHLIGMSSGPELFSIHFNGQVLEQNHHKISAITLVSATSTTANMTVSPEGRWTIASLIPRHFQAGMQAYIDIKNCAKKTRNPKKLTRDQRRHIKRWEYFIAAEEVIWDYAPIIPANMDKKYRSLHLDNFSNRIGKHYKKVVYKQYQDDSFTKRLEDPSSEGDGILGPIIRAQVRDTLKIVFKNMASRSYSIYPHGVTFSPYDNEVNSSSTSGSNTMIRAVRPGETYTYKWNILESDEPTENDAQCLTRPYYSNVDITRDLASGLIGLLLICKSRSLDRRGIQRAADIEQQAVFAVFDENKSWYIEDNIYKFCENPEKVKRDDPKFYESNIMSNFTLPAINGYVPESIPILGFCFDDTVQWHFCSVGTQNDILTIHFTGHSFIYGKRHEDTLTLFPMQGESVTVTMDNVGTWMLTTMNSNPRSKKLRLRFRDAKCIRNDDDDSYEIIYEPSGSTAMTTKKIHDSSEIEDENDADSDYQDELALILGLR
T1 sequence (Q28107 1565-2211 limits assumed): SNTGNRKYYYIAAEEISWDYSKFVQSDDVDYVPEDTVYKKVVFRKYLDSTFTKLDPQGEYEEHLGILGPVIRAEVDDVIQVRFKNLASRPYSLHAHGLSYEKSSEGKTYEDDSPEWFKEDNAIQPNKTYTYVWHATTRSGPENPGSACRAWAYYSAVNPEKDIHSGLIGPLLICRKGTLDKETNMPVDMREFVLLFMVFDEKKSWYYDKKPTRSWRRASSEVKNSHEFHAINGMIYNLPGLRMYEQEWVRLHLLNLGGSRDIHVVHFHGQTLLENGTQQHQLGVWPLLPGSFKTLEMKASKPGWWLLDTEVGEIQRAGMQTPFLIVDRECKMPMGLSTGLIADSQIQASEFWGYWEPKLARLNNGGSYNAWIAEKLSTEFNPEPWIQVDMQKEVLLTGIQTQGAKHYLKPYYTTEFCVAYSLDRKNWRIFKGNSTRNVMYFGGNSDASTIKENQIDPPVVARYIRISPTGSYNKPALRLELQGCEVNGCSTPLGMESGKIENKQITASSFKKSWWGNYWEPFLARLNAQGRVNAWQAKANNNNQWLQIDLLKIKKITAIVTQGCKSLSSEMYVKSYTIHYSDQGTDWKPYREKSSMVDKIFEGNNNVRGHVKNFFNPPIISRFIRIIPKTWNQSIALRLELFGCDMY

[2] = pure C6PS; cited from earlier work
[3] = target: T1, factor Va; assay: Factor Va inactivation by APC; assay type: biochemical, bovine; set-up: APC cuts three bonds in the heavy chain of factor Va; bovine factor Va (100 nM)
Method: Aliquots of this mixture (10 μL) were added at selected time intervals to a cuvette containing prothrombin (1.4 μM), DAPA (5 μM), PCPS vesicle (50 μM), and factor Xa (10 nM) in a total assay volume of 1 mL. The fluorescence intensity of the thrombin-DAPA was monitored with time. Under these conditions, the rate of thrombin formation is proportional to the rate of DAPA fluorescence increase and is linearly related to the amount of active factor Va. The two isoforms of factor Va, Va1 (Frame A) and Va2 (Frame B) were inactivated at different rates and to different extents by APC depending on the availability of C6PS.
Proteolysis at Arg^506 leads to partial inactivation, but proteolysis at Arg^306 is necessary for full inactivation (Kalafatis & Mann (1993) J. Biol. Chemistry 268 27246; Nicolaes et al., (1995) J. Biol. Chemistry (1995) 270 21158). […] The rate of proteolysis of the bond at Arg^306 increased from undetectable to a value of kcat/KM=3-3.5×10^6 M^−1sec^−1, identical to the rate reported with PS-containing membranes.

CCCCCC(=O)OC[C@H](COP(=O)(O)OC[C@H](N)C(=O)O)OC(=O)CCCCC [C6PS, 1,2-dicaproyl-sn-glycero-3-phospho-L-serine]
Kd [1]: ~90 µM | monomers in minimal micelle predicted for C6PS [2]: ~200 monomers | effect on extent of factor Va inactivation by APC ([3]; 4 μM C6PS): only a small effect | effect on rate of factor Va inactivation by APC ([3]; 4 μM C6PS): no effect | factor Va inactivation by APC ([3]; 200 μM C6PS): complete inactivation
